Patent publication US20090143236A1, “Method of detecting cancer cell acquiring drug-resistance” (BML, INC., priority 2004, published 2009)

Tested on: SKOV3 cells and SKOV3/VP cells
Test: Caspase activity (colorimetric CaspACE assay) of ovarian cancer cells treated with VP-16
Type: cell-based, Human
Conditions: 100 μg/ml VP-16, 24 hours; FIG. 4A
Description: Caspase activity was measured using a calorimetric CaspACE assay system (Promega Co., Madison, Wis., U.S.A.) in accordance with the instructions included therewith. SKOV3 cells and SKOV3/VP cells were cultured for 24 hours in the presence of 100 μg/ml VP-16, or VP-16 and the caspase inhibitor Z-VAD-FMK, or in the presence of only a medium (control). The cells were dissolved in a lysis buffer, and the resultant was then subjected to centrifugation at 4° C. at 15,000×g for 20 minutes. The supernatant (containing 100 μg of protein) was incubated with a substrate (Ac-DEVD-pNA) used for the measurement of caspase activity at 37° C. for 4 hours. Thereafter, the absorbance at 405 nm was measured, so as to obtain the activity.
The influence of BCL2L2 gene expression on apoptosis induced by anticancer drugs was analyzed. Human ovarian cancer SKOV3 cells and etoposide-resistant ovarian cancer SKOV3/VP cells were cultured for 24 hours in the presence of 100 μg/ml VP-16, so as to measure apoptosis associated with activation of caspase-3. […] Thereafter, in order to analyze the role of the BCL2L2 gene, the cells were treated with the antisense oligonucleotide of BCL2L2, and the influence of VP-16 was analyzed under conditions wherein expression of the BCL2L2 gene was suppressed. […]

COc1cc([C@@H]2c3cc4c(cc3[C@@H](O[C@@H]3O[C@@H]5CO[C@@H](C)O[C@H]5[C@H](O)[C@H]3O)[C@H]3COC(=O)[C@H]23)OCO4)cc(OC)c1O [VP-16, etoposide]
caspase activity in etoposide-resistant SKOV3/VP cells compared with parent line SKOV3: decreased to approximately one-half
